Assay results as given in patent EP0315197B1 (GÖDECKE AKTIENGESELLSCHAFT, priority 1987, dated 1989).
Counter-ions that a name gives are not always drawn. Like-named read-outs stand apart in the source and are kept apart here.

Assays:
Hypertonie [1] = settings: for Senkung der Herzfrequenz / Senkung des systolischen Blutdrucks im Sitzen: 3 weeks; for Abnahme des diastolischen Blutdrucks: after 3 weeks vs end of placebo phase, depending on time of measurement; for Response-Rate zum Zeitpunkt 8 Uhr: pre-dose; for globale Response-Rate (Anteil der Patienten mit Response zu allen drei Meßzeitpunkten): response = diastolic decrease of at least 10 mmHg or below 90 mmHg; for DBD sitzend / DBD stehend / HR sitzend / SBD sitzend / SBD stehend / HR stehend: mean (SD)
Source text: Die Patienten befanden sich stationär in Reha-Kliniken.
Nach Absetzen einer eventuellen antihypertensiven Vorbehandlung erhielten die Patienten zunächst 1 Woche Placebo.
Zur Beurteilung der Wirksamkeit wurde der diastolische Blutdruck im Sitzen zu 3 verschiedenen Tageszeiten (8, 11 und 17 Uhr) herangezogen. "Response" war definiert als eine Senkung des diastolischen Blutdrucks um mindestens 10 mmHg oder unter einen Wert von 90 mmHg.

[2] = Kölle 1983; cited from earlier work
Hypertonie [3] = settings: for Response-Rate / Senkung des mittleren systolischen Blutdrucks im Sitzen: 8 weeks; for Senkung des diastolischen Blutdrucks im Sitzen: after 8 weeks vs placebo phase, morning pre-dose, mean; for DBD sitzend / DBD stehend / HR sitzend / HR stehend / SBD sitzend / SBD stehend: mean (SD)
Procedure: In diese multizentrische randomisierte Doppelblind-Parallel-Studie wurden wiederum Hypertoniker der WHO-Klasse I-III eingeschlossen, deren diastolischer Blutdruck am Ende der Placebophase höher als 95 mmHg war. Einer 2-wöchigen Placebophase folgte eine Behandlungsphase von 8 Wochen. Das Therapieschema von 1 x tgl. 180 mg bzw. 2 x tgl. 90 mg glich dem der vorangegangenen Studie. Zur Beurteilung der Wirksamkeit wurde die Senkung des diastolischen Blutdrucks bei der Messung am Morgen herangezogen, die jeweils nach 8 Wochen Behandlung erzielt worden war. Die Blutdruckmessung erfolgte wiederum vor der Medikation, um Aufschluß über die 24-h-Wirkung bei der einmal täglichen Behandlung zu erhalten.

[4] = 5 p.m., 1 × 180 mg (n = 40), Basislinie (end of placebo phase)
[5] = 5 p.m., 1 × 180 mg (n = 40), Endpunkt (3 weeks)
[6] = 5 p.m., 2 × 90 mg (n = 42), Basislinie (end of placebo phase)
[7] = 5 p.m., 2 × 90 mg (n = 42), Endpunkt (3 weeks)
[8] = 8 a.m., 1 × 180 mg (n = 40), Basislinie (end of placebo phase)
[9] = 8 a.m., 1 × 180 mg (n = 40), Endpunkt (3 weeks)
[10] = 8 a.m., 2 × 90 mg (n = 42), Basislinie (end of placebo phase)
[11] = 8 a.m., 2 × 90 mg (n = 42), Endpunkt (3 weeks)
[12] = 11 a.m., 1 × 180 mg (n = 40), Basislinie (end of placebo phase)
[13] = 11 a.m., 1 × 180 mg (n = 40), Endpunkt (3 weeks)
[14] = 11 a.m., 2 × 90 mg (n = 42), Basislinie (end of placebo phase)
[15] = 11 a.m., 2 × 90 mg (n = 42), Endpunkt (3 weeks)
[16] = 1 × 180 mg (n = 30), Basislinie (end of placebo phase)
[17] = 1 × 180 mg (n = 30), Endpunkt (8 weeks)
[18] = 2 × 90 mg (n = 30), Basislinie (end of placebo phase)
[19] = 2 × 90 mg (n = 30), Endpunkt (8 weeks)

COc1ccc([C@@H]2Sc3ccccc3N(CCN(C)C)C(=O)[C@@H]2OC(C)=O)cc1 [Diltiazem, Diltiazemhydrochlorid]
Senkung der Herzfrequenz (Hypertonie [1]; 1 x 180 mg group): 4-8 Schläge pro Minute
Senkung des systolischen Blutdrucks im Sitzen (Hypertonie [1]; 1 x 180 mg group): 19-22 mmHg
Abnahme des diastolischen Blutdrucks (Hypertonie [1]; 1 x 180 mg group): 13-16 mmHg
Response-Rate zum Zeitpunkt 8 Uhr (Hypertonie [1]; 1 x 180 mg group): 87,5%
globale Response-Rate (Anteil der Patienten mit Response zu allen drei Meßzeitpunkten) (Hypertonie [1]; 1 x 180 mg group): 85%
Senkung der Herzfrequenz (Hypertonie [1]; 2 x 90 mg group): 4-8 Schläge pro Minute
Senkung des systolischen Blutdrucks im Sitzen (Hypertonie [1]; 2 x 90 mg group): 15-18 mmHg
Abnahme des diastolischen Blutdrucks (Hypertonie [1]; 2 x 90 mg group): 13-16 mmHg
Response-Rate zum Zeitpunkt 8 Uhr (Hypertonie [1]; 2 x 90 mg group): 81%
globale Response-Rate (Anteil der Patienten mit Response zu allen drei Meßzeitpunkten) (Hypertonie [1]; 2 x 90 mg group): 62%
DBD sitzend (Hypertonie [1]; [4]): 99.2 (3.9) mmHg
DBD stehend (Hypertonie [1]; [4]): 101.0 (4.8) mmHg
HR sitzend (Hypertonie [1]; [4]): 76.5 (9.2) 1/min
SBD sitzend (Hypertonie [1]; [4]): 158.9 (16.1) mmHg
SBD stehend (Hypertonie [1]; [4]): 158.4 (16.3) mmHg
DBD sitzend (Hypertonie [1]; [5]): 85.2 (8.8) mmHg
DBD stehend (Hypertonie [1]; [5]): 88.8 (8.9) mmHg
HR sitzend (Hypertonie [1]; [5]): 70.0 (7.2) 1/min
HR stehend (Hypertonie [1]; [5]): 78.6 (7.7) 1/min
SBD sitzend (Hypertonie [1]; [5]): 140.2 (14.2) mmHg
SBD stehend (Hypertonie [1]; [5]): 138.5 (14.8) mmHg
DBD sitzend (Hypertonie [1]; [6]): 99.9 (5.9) mmHg
DBD stehend (Hypertonie [1]; [6]): 102.5 (5.8) mmHg
HR sitzend (Hypertonie [1]; [6]): 77.0 (8.4) 1/min
SBD stehend (Hypertonie [1]; [6]): 156.7 (15.0) mmHg
DBD sitzend (Hypertonie [1]; [7]): 87.0 (10.7) mmHg
DBD stehend (Hypertonie [1]; [7]): 87.7 (9.2) mmHg
HR sitzend (Hypertonie [1]; [7]): 72.1 (8.1) 1/min
HR stehend (Hypertonie [1]; [7]): 79.6 (9.1) 1/min
SBD stehend (Hypertonie [1]; [7]): 138.6 (15.1) mmHg
DBD sitzend (Hypertonie [1]; [8]): 98.3 (3.9) mmHg
DBD stehend (Hypertonie [1]; [8]): 100.1 (7.1) mmHg
HR sitzend (Hypertonie [1]; [8]): 76.8 (9.4) 1/min
HR stehend (Hypertonie [1]; [8]): 87.2 (11.0) 1/min
SBD sitzend (Hypertonie [1]; [8]): 161.3 (16.2) mmHg
SBD stehend (Hypertonie [1]; [8]): 158.6 (16.4) mmHg
DBD sitzend (Hypertonie [1]; [9]): 85.3 (8.3) mmHg
DBD stehend (Hypertonie [1]; [9]): 87.3 (9.8) mmHg
HR sitzend (Hypertonie [1]; [9]): 73.7 (7.1) 1/min
HR stehend (Hypertonie [1]; [9]): 80.6 (7.4) 1/min
SBD stehend (Hypertonie [1]; [9]): 141.0 (14.8) mmHg
DBD sitzend (Hypertonie [1]; [10]): 99.8 (5.2) mmHg
DBD stehend (Hypertonie [1]; [10]): 102.0 (5.8) mmHg
HR sitzend (Hypertonie [1]; [10]): 76.4 (9.6) 1/min
SBD stehend (Hypertonie [1]; [10]): 155.5 (17.9) mmHg
DBD sitzend (Hypertonie [1]; [11]): 83.9 (10.7) mmHg
DBD stehend (Hypertonie [1]; [11]): 88.5 (9.7) mmHg
HR sitzend (Hypertonie [1]; [11]): 72.1 (8.2) 1/min
HR stehend (Hypertonie [1]; [11]): 79.0 (8.0) 1/min
SBD stehend (Hypertonie [1]; [11]): 137.4 (16.1) mmHg
DBD sitzend (Hypertonie [1]; [12]): 98.5 (3.9) mmHg
DBD stehend (Hypertonie [1]; [12]): 100.5 (5.8) mmHg
HR sitzend (Hypertonie [1]; [12]): 75.1 (9.2) 1/min
HR stehend (Hypertonie [1]; [12]): 84.4 (9.5) 1/min
SBD sitzend (Hypertonie [1]; [12]): 159.2 (18.2) mmHg
SBD stehend (Hypertonie [1]; [12]): 157.9 (19.6) mmHg
DBD sitzend (Hypertonie [1]; [13]): 83.3 (8.2) mmHg
DBD stehend (Hypertonie [1]; [13]): 87.1 (8.3) mmHg
HR sitzend (Hypertonie [1]; [13]): 71.1 (7.0) 1/min
HR stehend (Hypertonie [1]; [13]): 78.8 (6.9) 1/min
SBD sitzend (Hypertonie [1]; [13]): 137.6 (12.2) mmHg
SBD stehend (Hypertonie [1]; [13]): 137.1 (14.2) mmHg
DBD sitzend (Hypertonie [1]; [14]): 100.2 (5.4) mmHg
DBD stehend (Hypertonie [1]; [14]): 102.9 (5.6) mmHg
HR sitzend (Hypertonie [1]; [14]): 76.0 (9.1) 1/min
HR stehend (Hypertonie [1]; [14]): 83.6 (10.4) 1/min
SBD sitzend (Hypertonie [1]; [14]): 158.1 (16.5) mmHg
SBD stehend (Hypertonie [1]; [14]): 155.8 (17.7) mmHg
DBD sitzend (Hypertonie [1]; [15]): 85.4 (9.5) mmHg
DBD stehend (Hypertonie [1]; [15]): 87.3 (10.6) mmHg
HR sitzend (Hypertonie [1]; [15]): 71.3 (7.8) 1/min
HR stehend (Hypertonie [1]; [15]): 78.6 (8.6) 1/min
SBD sitzend (Hypertonie [1]; [15]): 140.1 (15.8) mmHg
SBD stehend (Hypertonie [1]; [15]): 135.7 (15.5) mmHg
Halbwertzeit für die Elimination, α-Phase [2]: 0,1 h
Halbwertzeit für die Elimination, β-Phase [2]: 2,1 h
Halbwertzeit für die Elimination, γ-Phase [2]: 9,8 h
Response-Rate (Hypertonie [3]; 1 x 180 mg group): 80%
Senkung des diastolischen Blutdrucks im Sitzen (Hypertonie [3]; 1 x 180 mg group): 13 mmHg
Senkung des mittleren systolischen Blutdrucks im Sitzen (Hypertonie [3]; 1 x 180 mg): 16 mmHg
DBD sitzend (Hypertonie [3]; [16]): 100.7 (3.0) mmHg
DBD stehend (Hypertonie [3]; [16]): 98.7 (3.2) mmHg
HR sitzend (Hypertonie [3]; [16]): 72.5 (4.9) 1/min
HR stehend (Hypertonie [3]; [16]): 74.9 (6.3) 1/min
SBD sitzend (Hypertonie [3]; [16]): 175.1 (16.6) mmHg
SBD stehend (Hypertonie [3]; [16]): 169.7 (19.8) mmHg
DBD sitzend (Hypertonie [3]; [17]): 87.8 (9.1) mmHg
DBD stehend (Hypertonie [3]; [17]): 84.8 (9.2) mmHg
HR sitzend (Hypertonie [3]; [17]): 68.7 (4.4) 1/min
HR stehend (Hypertonie [3]; [17]): 71.3 (5.2) 1/min
SBD sitzend (Hypertonie [3]; [17]): 159.0 (18.8) mmHg
SBD stehend (Hypertonie [3]; [17]): 150.5 (26.6) mmHg
Response-Rate (Hypertonie [3]; 2 x 90 mg group): 70%
Senkung des diastolischen Blutdrucks im Sitzen (Hypertonie [3]; 2 x 90 mg group): 12 mmHg
Senkung des mittleren systolischen Blutdrucks im Sitzen (Hypertonie [3]; 2 x 90 mg): 10 mmHg
DBD sitzend (Hypertonie [3]; [18]): 99.1 (3.2) mmHg
DBD stehend (Hypertonie [3]; [18]): 99.0 (3.1) mmHg
HR sitzend (Hypertonie [3]; [18]): 73.5 (6.5) 1/min
HR stehend (Hypertonie [3]; [18]): 75.9 (7.5) 1/min
SBD sitzend (Hypertonie [3]; [18]): 169.4 (19.7) mmHg
SBD stehend (Hypertonie [3]; [18]): 168.5 (22.1) mmHg
DBD sitzend (Hypertonie [3]; [19]): 88.4 (8.0) mmHg
DBD stehend (Hypertonie [3]; [19]): 86.9 (8.6) mmHg
HR sitzend (Hypertonie [3]; [19]): 69.8 (6.0) 1/min
HR stehend (Hypertonie [3]; [19]): 72.5 (7.0) 1/min
SBD sitzend (Hypertonie [3]; [19]): 159.2 (23.7) mmHg
SBD stehend (Hypertonie [3]; [19]): 156.7 (28.4) mmHg
